Test results reported in patent US20230212246A1, “TGF-B AS A THERAPEUTIC TARGET FOR INTRACRANIAL ANEURYSM” (THE BOARD OF REGENTS OF THE UNIVERSITY OF TEXAS SYSTEM, priority 2022, published 2023).

What was measured:
p-Smad2 [1] = assay: TGFβ1 time course of p-Smad2 (Western blot) in HEK293T cells; type: cell-based; settings: HEK293T cells treated with TGFβ1 at different time points, FIG. 4a
Protocol: HEK293T cells were maintained in DMEM medium (Corning, 10-013-CV) containing 10% fetal bovine serum (Invitrogen, 10082147), 100 IU penicillin, and 100 μg/ml streptomycin. Transfections of small interfering RNAs and plasmid DNA were performed using lipofectamine 2000 (Life Technologies, 11668027) according to the manufacturer's instructions. Alternatively, for cells such as endothelial cells that are hard to transfect, we will utilize lentiviral system to generate stable cell lines.
(§1) Cells were lysed in 1% Triton lysis buffer and sonicated briefly before centrifuged at 18506 g for 30 min at 4° C. Total cell lysates were added by 2X SDS sample buffer and then subjected to discontinuous SDS-PAGE analysis. Proteins were transferred to nitro-cellulose membranes using a Bio-Rad (Hercules, Calif.) mini transfer apparatus followed by blocking with 5% nonfat milk. Primary antibodies and secondary antibodies were used usually at 1:1000 and 1:10000 dilutions respectively before using an Odyssey system to detect the fluorescence signal.
FIG. 3 is a drawing depicting a representative model of the TGFβ pathway. […] As depicted in FIG. 3, it is possible to monitor the phosphorylation level of Smad2 or Samd3 as a reporter for TGFβ signaling activity. […]

p-Smad2 [2] = assay: TGFβ treatment time course of p-Smad2 in HUVEC; type: cell-based, human; settings: HUVEC (cell line not restated), FIG. 5c
Protocol: as §1
(§2) FIG. 3 is a drawing depicting a representative model of the TGFβ pathway. […] As depicted in FIG. 3, it is possible to monitor the phosphorylation level of Smad2 or Samd3 as a reporter for TGFβ signaling activity.
(§3) To further investigate a potential role for the TGFβ Signaling pathway in the pathology of aneurysms, specifically IA, we also tested TGFβ treatment in different endothelial cells including HBMEC and HUVEC. HBMEC is a primary brain endothelial cells and HUVEC is primary umbilical vein endothelial cells. […] THSD1 knockdown can block TGFβ signaling.

p-Smad2 [3] = assay: TGFβ treatment time course of p-Smad2 in HBMEC; type: cell-based, human; settings: FIG. 5a
Protocol: as §1, §2, §3

p-Smad2 [4] = assay: Activin treatment time course of p-Smad2 in HBMEC; type: cell-based, human; settings: HBMEC cells, FIG. 6a
Protocol: as §1, §2
To evaluate the specificity of the requirement for THSD1 for TGFβ signaling in endothelial cells we also tested Activin treatment. […] FIG. 7 is a schematic illustrating that THSD1 has a thrombospondin domain (TSP1) that interacts with mature TGFβ ligand.

| Substance | time at which p-Smad2 reaches plateau (p-Smad2 [1]) | time at which p-smad2 reaches the highest level (p-Smad2 [2]) | time at which p-Smad2 reaches the maximum level (p-Smad2 [3]) | time at which p-smad2 reaches the highest level (p-Smad2 [4]) |
| --- | --- | --- | --- | --- |
| TGFβ1: TGFβ ligand; polypeptide used to treat cells and induce Smad2 phosphorylation | 60 min | around 40 mins | around 40 mins | – |
| Activin | – | – | – | around 40 mins |
